The values below come from patent US20260022143A1, “Cyclic Peptide Inhibitors of IL-23” (JANSSEN PHARMACEUTICA NV, priority 2022, published 2026).

Structures can show the parent of a compound that is named as a salt. Starred links: 1 amine or outer side, 2 acyl side, 3 side chain; linkers in the order of their positions; H or OH if unused. Positions of bridges follow the written chain, without caps; N, C: chain ends. Non-standard residues stand in square brackets, D forms with d. Residues, ends and D or L forms follow the SMILES beside them. Groups on a side chain read outwards from the residue. *: point of attachment. X51 = C[N+](C)(C)CCCc1cn(-c2ccc(C[C@H](N[*:1])C(=O)[*:2])cc2)nn1; Me3N+(CH2)2O(CH2)2O(CH2)2CO = C[N+](C)(C)CCOCCOCCC(=O)*; X35 = Cc1cccc2c(C[C@H](N[*:1])C(=O)[*:2])cn(C)c12; Trp(7-Me) = Cc1cccc2c(C[C@H](N)C(=O)O)c[nH]c12; 3Pal(5-Me) = Cc1cncc(C[C@H](N)C(=O)O)c1; Dab(NMeAc) = CC(=O)N(C)CC[C@H](N)C(=O)O; X1 = CN(CC[C@H](N[*:1])C(=O)[*:2])[*:3]; γGlu = O=C(O)[C@H](CCC(=O)[*:2])N[*:1]; 2Nal = N[C@@H](Cc1ccc2ccccc2c1)C(=O)O; AEF = NCCOc1ccc(C[C@H](N)C(=O)O)cc1; 3Pal = N[C@@H](Cc1cccnc1)C(=O)O; Cit = NC(=O)NCCC[C@H](N)C(=O)O; Lys(Me) = CNCCCC[C@H](N)C(=O)O; Pen = CC(C)(S)[C@H](N)C(=O)O; Lauroyl = CCCCCCCCCCCC(=O)*; Thp = NC1(C(=O)O)CCOCC1; X3 = C[N+](C)(C)CCCCC*; AEEA = NCCOCCOCC(=O)O; Me2NCH2CH2 = CN(C)CC*; Tfa = O=C(C(F)(F)F)*; Sar = CNCC(=O)O

One data set addresses T1, IL-23R (Homo sapiens, UniProt Q5VWK5).
T1 construct: host or cells: HEK293
T1 sequence (Q5VWK5 24-629): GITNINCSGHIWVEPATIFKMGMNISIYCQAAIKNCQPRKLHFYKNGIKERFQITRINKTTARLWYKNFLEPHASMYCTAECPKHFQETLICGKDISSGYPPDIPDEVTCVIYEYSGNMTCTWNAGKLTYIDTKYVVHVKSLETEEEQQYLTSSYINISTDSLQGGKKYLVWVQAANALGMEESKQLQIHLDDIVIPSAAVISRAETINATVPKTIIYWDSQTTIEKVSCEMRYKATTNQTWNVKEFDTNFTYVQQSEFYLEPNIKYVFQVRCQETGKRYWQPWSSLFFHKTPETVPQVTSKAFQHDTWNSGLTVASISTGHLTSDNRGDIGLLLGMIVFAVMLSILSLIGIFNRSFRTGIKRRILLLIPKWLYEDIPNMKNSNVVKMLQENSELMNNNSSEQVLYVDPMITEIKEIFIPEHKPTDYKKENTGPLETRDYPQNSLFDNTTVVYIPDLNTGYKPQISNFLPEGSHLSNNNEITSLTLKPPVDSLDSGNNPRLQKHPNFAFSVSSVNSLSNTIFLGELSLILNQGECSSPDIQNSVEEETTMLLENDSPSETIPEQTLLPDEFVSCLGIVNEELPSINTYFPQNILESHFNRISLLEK
The experiment in a line: IL23R Reporter Assay. The conditions noted are these: HEK293 cells containing IL-23R, IL-12RP1 and STAT-inducible firefly luciferase reporter; 10 ng/mL IL-23 (EC90); 5 h at 37° C.; read-out: IL23R Reporter Assay. It counts as cell-based.

Data set [1] in a line: Exposed Polar Surface Area (EPSA). It counts as physicochemical. The conditions noted are these: SFC on Chirex 3014 column; sample 1 mM DMSO stock; read-out: EPSA. The procedure, abridged: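 Polarity measured by SFC on a Chirex 3014 column (35 °C, 4 mL/min) with methanol/ammonium formate in CO2 as gradient eluent. Retention times were normalised to EPSA (Å^2) against eight reference compounds.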

In the case of `CC(=O)N(C)CCCC[C@@H]1NC(=O)[C@H](Cc2c[nH]c3c(C)cccc23)NC(=O)[C@H]([C@@H](C)O)NC(=O)[C@H](CC(=O)N(C)C)NC(=O)[C@@H](NC(=O)CCOCCOCC[N+](C)(C)C)C(C)(C)SSC(C)(C)[C@@H](C(=O)N[C@@H](Cc2ccc(OCCCCC[N+](C)(C)C)cc2)C(=O)N[C@@H](Cc2ccc3ccccc3c2)C(=O)NC2(C(=O)N[C@@H](CCCNC(N)=O)C(=O)N[C@@H](CC(N)=O)C(=O)N[C@@H](Cc3cccnc3)C(=O)N(C)CC(=O)N(C)C)CCOCC2)NC1=O` [compound 327, cPEG3aCO-Pen(3)-N(N(Me)2)-T-7MeW-K(NMeAc)-Pen(3)-TMAPF-2Nal-THP-Cit-N-3Pya-Sar-CON(Me)2] ({Me3N+(CH2)2O(CH2)2O(CH2)2CO}-[Pen]D(NMe2)T[Trp(7-Me)][Lys(Me)](Ac)[Pen]Y(X3)[2Nal][Thp][Cit]N[3Pal][Sar]-NMe2; disulfide 1-6), the IC50 on IL-23R turned out to be 1.2 nM. Also, the EPSA in data set [1] was 157 A^2.
The matching figures for `CC(=O)NCCCC[C@@H]1NC(=O)[C@H](Cc2c[nH]c3c(C)cccc23)NC(=O)[C@H]([C@@H](C)O)NC(=O)[C@H](CC(N)=O)NC(=O)[C@@H](NC(C)=O)C(C)(C)SSC(C)(C)[C@@H](C(=O)N[C@@H](Cc2ccc(-n3cc(CCC[N+](C)(C)C)nn3)cc2)C(=O)N[C@@H](Cc2ccc3ccccc3c2)C(=O)NC2(C(=O)N[C@@H](CCC(=O)O)C(=O)N[C@@H](CC(N)=O)C(=O)N[C@@H](Cc3cccnc3)C(=O)N(C)CC(N)=O)CCOCC2)NC1=O` [compound 458] (Ac-[Pen]NT[Trp(7-Me)]K(Ac)[Pen][X51][2Nal][Thp]EN[3Pal][Sar]-NH2; disulfide 1-6 (inferred)): 2.6 nM and 172 A^2.
For `CC(=O)NCCCC[C@@H]1NC(=O)[C@H](Cc2c[nH]c3c(C)cccc23)NC(=O)[C@H]([C@@H](C)O)NC(=O)[C@H](CC(N)=O)NC(=O)[C@@H](NC(=O)[C@@H](CCCNC(=N)N)NC(C)=O)C(C)(C)SSC(C)(C)[C@@H](C(=O)N[C@@H](Cc2ccc(OCCCCC[N+](C)(C)C)cc2)C(=O)N[C@@H](Cc2ccc3ccccc3c2)C(=O)NC2(C(=O)N[C@@H](CCCCNC(C)=O)C(=O)N[C@@H](CC(N)=O)C(=O)N[C@@H](Cc3cncc(C)c3)C(=O)N(C)CC(N)=O)CCOCC2)NC1=O` [compound 532, MeCO-r-Pen(3)-N-T-7MeW-K(Ac)-Pen(3)-TMAPF-2Nal-THP-K(Ac)-N-5MePyridinAla-Sar-CONH2] (Ac-[dR][Pen]NT[Trp(7-Me)]K(Ac)[Pen]Y(X3)[2Nal][Thp]K(Ac)N[3Pal(5-Me)][Sar]-NH2; disulfide 2-7), in that order: 0.9 nM and 171 A^2.
For `CC(=O)N(C)CC[C@@H]1NC(=O)[C@H](Cc2c[nH]c3c(C)cccc23)NC(=O)[C@H]([C@@H](C)O)NC(=O)[C@H](CC(N)=O)NC(=O)[C@@H](NC(=O)C(F)(F)F)C(C)(C)SSC(C)(C)[C@@H](C(=O)N[C@@H](Cc2ccc(OCCN(C)C)cc2)C(=O)N[C@@H](Cc2ccc3ccccc3c2)C(=O)NC2(C(=O)N[C@@H](CCC(=O)N(C)C)C(=O)N[C@@H](CC(N)=O)C(=O)N[C@@H](Cc3cccnc3)C(=O)N(C)CC(N)=O)CCOCC2)NC1=O` [compound 71] (Tfa-[Pen]NT[Trp(7-Me)][Dab(NMeAc)][Pen]Y(Me2NCH2CH2)[2Nal][Thp]E(NMe2)N[3Pal][Sar]-NH2; disulfide 1-6 (inferred)), in that order: 2.1 nM and 146 A^2.
As to `CC(=O)NCCCC[C@@H]1NC(=O)[C@H](Cc2cn(C)c3c(C)cccc23)NC(=O)[C@H]([C@@H](C)O)NC(=O)[C@H](CC(N)=O)NC(=O)[C@@H](NC(C)=O)C(C)(C)SSC(C)(C)[C@@H](C(=O)N[C@@H](Cc2ccc(OCCN)cc2)C(=O)N[C@@H](Cc2ccc3ccccc3c2)C(=O)NC2(C(=O)N[C@@H](CCC(=O)O)C(=O)N[C@@H](CC(N)=O)C(=O)N[C@@H](Cc3cccnc3)C(=O)N(C)CC(N)=O)CCOCC2)NC1=O` [compound 166] (Ac-[Pen]NT[X35]K(Ac)[Pen][AEF][2Nal][Thp]EN[3Pal][Sar]-NH2; disulfide 1-6 (inferred)), the IC50 on IL-23R turned out to be 3 nM. The EPSA in data set [1] came to 179 A^2.
As for `CCCCCCCCCCCC(=O)N[C@@H](CCC(=O)NCCOCCOCC(=O)NCCOCCOCC(=O)NCCCC[C@@H]1NC(=O)[C@H](Cc2c[nH]c3c(C)cccc23)NC(=O)[C@H]([C@@H](C)O)NC(=O)[C@H](CC(=O)N(C)C)NC(=O)[C@@H](NC(=O)CCOCCOCC[N+](C)(C)C)C(C)(C)SSC(C)(C)[C@@H](C(=O)N[C@@H](Cc2ccc(OCCCCC[N+](C)(C)C)cc2)C(=O)N[C@@H](Cc2ccc3ccccc3c2)C(=O)NC2(C(=O)N[C@@H](CCCCNC(=O)COCCOCCNC(=O)COCCOCCNC(=O)CC[C@H](NC(=O)CCCCCCCCCCC)C(=O)O)C(=O)N[C@@H](CC(N)=O)C(=O)N[C@@H](Cc3cccnc3)C(=O)N(C)CC(=O)N(C)C)CCOCC2)NC1=O)C(=O)O` [compound 400, cPEG3aCO-Pen(3)-N(N(Me)2)-T-7MeW-K(PEG2PEG2gEC12)-Pen(3)-TMAPF-2Nal-THP-K(PEG2PEG2gEC12)-N-3Pya-Sar-CON(Me)2] ({Me3N+(CH2)2O(CH2)2O(CH2)2CO}-[Pen]D(NMe2)T[Trp(7-Me)]K([AEEA-AEEA-γGlu-Lauroyl])[Pen]Y(X3)[2Nal][Thp]K([AEEA-AEEA-γGlu-Lauroyl])N[3Pal][Sar]-NMe2; disulfide 1-6), on IL-23R, the IC50 worked out at 290 nM. Also, the EPSA in data set [1] was 173 A^2.
`CCCCCCCCCCCC(=O)N[C@@H](CCC(=O)NCCOCCOCC(=O)NCCOCCOCC(=O)NCCCC[C@H](NC(=O)C1(NC(=O)[C@H](Cc2ccc3ccccc3c2)NC(=O)[C@H](Cc2ccc(OCCCCC[N+](C)(C)C)cc2)NC(=O)[C@H]2NC(=O)[C@H](CCCCN(C)C(C)=O)NC(=O)[C@H](Cc3c[nH]c4c(C)cccc34)NC(=O)[C@H]([C@@H](C)O)NC(=O)[C@H](CC(=O)N(C)C)NC(=O)[C@@H](NC(=O)CCOCCOCC[N+](C)(C)C)C(C)(C)SSC2(C)C)CCOCC1)C(=O)N[C@@H](CC(N)=O)C(=O)N[C@@H](Cc1cccnc1)C(=O)N(C)CC(=O)N(C)C)C(=O)O` [compound 401, cPEG3aCO-Pen(3)-N(N(Me)2)-T-7MeW-K(NMeAc)-Pen(3)-TMAPF-2Nal-THP-K(PEG2PEG2gEC12)-N-3Pya-Sar-CON(Me)2] ({Me3N+(CH2)2O(CH2)2O(CH2)2CO}-[Pen]D(NMe2)T[Trp(7-Me)][Lys(Me)](Ac)[Pen]Y(X3)[2Nal][Thp]K([AEEA-AEEA-γGlu-Lauroyl])N[3Pal][Sar]-NMe2; disulfide 1-6): the IC50 at IL-23R came to 5.9 nM. Also, in data set [1], the EPSA was 155 A^2.
With `CC(=O)N[C@@H]1C(=O)N[C@@H](CC(=O)N(C)C)C(=O)N[C@@H]([C@@H](C)O)C(=O)N[C@@H](Cc2c[nH]c3c(C)cccc23)C(=O)N[C@@H](CCN(C)C(=O)CCOCCOCC[N+](C)(C)C)C(=O)N[C@H](C(=O)N[C@@H](Cc2ccc(OCCN)cc2)C(=O)N[C@@H](Cc2ccc3ccccc3c2)C(=O)NC2(C(=O)N[C@@H](CCN(C)C(=O)CCOCCOCC[N+](C)(C)C)C(=O)N[C@@H](CC(N)=O)C(=O)N[C@@H](Cc3cccnc3)C(=O)N(C)CC(=O)N(C)C)CCOCC2)C(C)(C)SSC1(C)C` [compound 175, MeCO-Pen(3)-N(N(Me)2)-T-7MeW-Dab(NMecPEG3a)-Pen(3)-AEF-2Nal-THP-Dab(NMecPEG3a)-N-3Pya-Sar-CON(Me)2] (Ac-[Pen]D(NMe2)T[Trp(7-Me)][X1](Me3N+(CH2)2O(CH2)2O(CH2)2CO)[Pen][AEF][2Nal][Thp][X1](Me3N+(CH2)2O(CH2)2O(CH2)2CO)N[3Pal][Sar]-NMe2; disulfide 1-6 (inferred)), the IC50 at IL-23R was 6.3 nM. In data set [1], the EPSA was 140 A^2.
For `CC(=O)NCCCC[C@@H]1NC(=O)[C@H](Cc2c[nH]c3c(-c4cccc(NC(C)=O)c4)cccc23)NC(=O)[C@H]([C@@H](C)O)NC(=O)[C@H](CC(N)=O)NC(=O)[C@@H](NC(C)=O)C(C)(C)SSC(C)(C)[C@@H](C(=O)N[C@@H](Cc2ccc(OCCCCC[N+](C)(C)C)cc2)C(=O)N[C@@H](Cc2ccc3ccccc3c2)C(=O)NC2(C(=O)N[C@@H](CCCCN(C)C(C)=O)C(=O)N[C@@H](CC(N)=O)C(=O)N[C@@H](Cc3cncc(C)c3)C(=O)N(C)CC(N)=O)CCOCC2)NC1=O` [compound 502, MeCO-Pen(3)-N-T-7(3NAcPh)W-K(Ac)-Pen(3)-TMAPF-2Nal-THP-K(NMeAc)-N-5MePyridinAla-Sar-CONH2], in that order: 3.8 nM and 169 A^2.
